Our source for the IC50 values is patent US10065963B2 (Incyte Corporation, priority 2015, dated 2018).

Each structure is given as a SMILES string. Where a name gives a salt, the structure may show the parent alone. Where only a bound is given, the exact number is not on record here.

For test [1], the target named is PI3Kγ (p110γ) Recombinant Human Protein (Homo sapiens (Human), UniProt P48736). Kind of test: PI3K-γ scintillation proximity assay. The test is classed as biochemical. Conditions: 2 μM ATP, 20 μM PIP2.
Test [2] concerns the target PI3Kδ (p110δ/p85α) Recombinant Human Protein (Homo sapiens (Human), UniProt O00329). Kind of test: PI3Kδ scintillation proximity assay. The test is classed as biochemical.

PI3Kγ (p110γ) Recombinant Human Protein, sequence (P48736 whole entry): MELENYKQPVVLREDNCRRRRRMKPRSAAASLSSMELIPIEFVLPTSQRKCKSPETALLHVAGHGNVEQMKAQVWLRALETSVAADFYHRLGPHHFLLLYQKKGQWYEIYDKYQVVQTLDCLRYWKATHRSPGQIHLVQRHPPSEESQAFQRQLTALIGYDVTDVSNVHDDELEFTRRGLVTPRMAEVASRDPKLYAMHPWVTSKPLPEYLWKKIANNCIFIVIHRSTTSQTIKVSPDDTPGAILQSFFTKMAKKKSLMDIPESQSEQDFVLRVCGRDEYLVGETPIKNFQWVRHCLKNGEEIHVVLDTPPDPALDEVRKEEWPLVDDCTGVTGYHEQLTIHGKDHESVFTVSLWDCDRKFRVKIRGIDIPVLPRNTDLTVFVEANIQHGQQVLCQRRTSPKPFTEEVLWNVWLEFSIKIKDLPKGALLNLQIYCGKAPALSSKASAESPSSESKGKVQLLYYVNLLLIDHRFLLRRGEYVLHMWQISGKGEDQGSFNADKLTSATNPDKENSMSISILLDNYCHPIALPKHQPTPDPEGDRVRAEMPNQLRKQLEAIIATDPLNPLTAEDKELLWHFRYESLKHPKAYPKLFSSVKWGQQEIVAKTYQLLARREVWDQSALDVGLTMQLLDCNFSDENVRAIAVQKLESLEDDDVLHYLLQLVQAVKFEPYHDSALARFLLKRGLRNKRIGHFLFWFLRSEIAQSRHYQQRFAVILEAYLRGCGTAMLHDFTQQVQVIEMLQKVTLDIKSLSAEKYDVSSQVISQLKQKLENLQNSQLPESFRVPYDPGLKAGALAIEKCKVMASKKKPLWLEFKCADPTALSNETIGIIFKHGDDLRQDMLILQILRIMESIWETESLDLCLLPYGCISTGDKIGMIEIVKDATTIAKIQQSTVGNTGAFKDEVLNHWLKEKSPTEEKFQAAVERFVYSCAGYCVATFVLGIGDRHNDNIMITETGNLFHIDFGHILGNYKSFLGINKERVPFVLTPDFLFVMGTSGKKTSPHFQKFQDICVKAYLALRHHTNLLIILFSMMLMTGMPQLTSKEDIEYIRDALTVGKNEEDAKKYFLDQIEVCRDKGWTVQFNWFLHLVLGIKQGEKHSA
PI3Kδ (p110δ/p85α) Recombinant Human Protein, sequence (O00329 whole entry): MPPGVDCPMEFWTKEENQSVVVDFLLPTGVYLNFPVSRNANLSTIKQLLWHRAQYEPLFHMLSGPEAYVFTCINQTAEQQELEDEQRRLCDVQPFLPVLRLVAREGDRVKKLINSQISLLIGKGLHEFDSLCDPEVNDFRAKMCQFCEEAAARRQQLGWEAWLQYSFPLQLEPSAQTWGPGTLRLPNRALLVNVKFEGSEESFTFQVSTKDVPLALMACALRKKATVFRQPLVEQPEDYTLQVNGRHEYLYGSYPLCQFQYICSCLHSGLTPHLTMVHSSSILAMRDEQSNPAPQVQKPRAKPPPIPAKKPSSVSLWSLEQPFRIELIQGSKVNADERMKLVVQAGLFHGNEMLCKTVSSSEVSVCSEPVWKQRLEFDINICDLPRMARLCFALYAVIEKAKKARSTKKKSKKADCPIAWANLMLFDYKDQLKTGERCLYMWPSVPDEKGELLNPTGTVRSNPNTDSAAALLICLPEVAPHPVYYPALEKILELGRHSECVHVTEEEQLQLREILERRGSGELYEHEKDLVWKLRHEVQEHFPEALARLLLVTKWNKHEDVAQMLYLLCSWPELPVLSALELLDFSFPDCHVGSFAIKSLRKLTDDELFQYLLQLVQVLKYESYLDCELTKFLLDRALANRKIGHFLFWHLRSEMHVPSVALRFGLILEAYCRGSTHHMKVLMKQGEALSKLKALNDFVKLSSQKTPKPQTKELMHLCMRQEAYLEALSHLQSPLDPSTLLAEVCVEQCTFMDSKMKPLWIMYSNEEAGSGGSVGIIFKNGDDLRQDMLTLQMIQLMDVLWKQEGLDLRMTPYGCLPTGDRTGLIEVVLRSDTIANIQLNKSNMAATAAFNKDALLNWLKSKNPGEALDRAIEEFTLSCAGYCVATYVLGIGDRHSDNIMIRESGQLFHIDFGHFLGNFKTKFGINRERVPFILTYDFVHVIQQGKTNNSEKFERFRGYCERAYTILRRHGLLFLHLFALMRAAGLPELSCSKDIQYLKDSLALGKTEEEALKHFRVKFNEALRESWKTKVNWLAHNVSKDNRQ
PI3Kδ (p110δ/p85α) Recombinant Human Protein, sequence (P27986 whole entry partner): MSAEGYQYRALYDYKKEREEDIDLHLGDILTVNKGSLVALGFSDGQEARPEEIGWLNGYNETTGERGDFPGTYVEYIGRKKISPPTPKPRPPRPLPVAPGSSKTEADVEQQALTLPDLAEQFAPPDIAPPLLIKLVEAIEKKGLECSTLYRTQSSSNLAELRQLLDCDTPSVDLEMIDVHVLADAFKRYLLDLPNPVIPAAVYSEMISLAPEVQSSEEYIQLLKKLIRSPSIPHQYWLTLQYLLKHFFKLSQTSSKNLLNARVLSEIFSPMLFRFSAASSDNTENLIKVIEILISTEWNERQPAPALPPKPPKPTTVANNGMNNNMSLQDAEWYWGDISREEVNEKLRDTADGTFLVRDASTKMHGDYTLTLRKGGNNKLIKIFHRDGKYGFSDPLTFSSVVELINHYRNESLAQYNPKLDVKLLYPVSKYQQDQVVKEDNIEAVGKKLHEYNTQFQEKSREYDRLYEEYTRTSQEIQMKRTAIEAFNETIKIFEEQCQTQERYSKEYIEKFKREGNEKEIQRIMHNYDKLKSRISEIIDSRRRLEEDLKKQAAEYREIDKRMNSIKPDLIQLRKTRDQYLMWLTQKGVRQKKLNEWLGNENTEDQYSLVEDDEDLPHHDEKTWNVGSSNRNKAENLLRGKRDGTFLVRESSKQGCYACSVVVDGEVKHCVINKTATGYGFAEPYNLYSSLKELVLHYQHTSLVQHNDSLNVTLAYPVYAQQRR

As for `CC(NC(=O)c1c(N)nn2cccnc12)c1cc(C2CC2)c2cncn2c1-c1ccccc1` (racemic) [Example 117, 2-Amino-N-[1-(8-cyclopropyl-5-phenylimidazo[1,5-a]pyridin-6-yl)ethyl]pyrazolo[1,5-a]pyrimidine-3-carboxamide trifluoroacetate salt], the IC50 is less than 500 nM in test [1] and less than 2000 nM in test [2] (2 μM ATP, 20 μM PIP2). Turning to `CNC(=O)c1ccc(-c2c(C(C)NC(=O)c3c(N)nn4cccnc34)cc(Cl)c3cncn23)cn1` (racemic) [Example 132, 2-Amino-N-[1-{8-chloro-5-{6-[(methylamino)carbonyl]pyridin-3-yl}imidazo [1,5-a]pyridin-6-yl)ethyl]pyrazolo[1,5-a]pyrimidine-3-carboxamide trifluoroacetate salt], the IC50 in test [1] was less than 500 nM; in test [2] (2 μM ATP, 20 μM PIP2), less than 500 nM. As for `CC(NC(=O)c1c(N)nn2cccnc12)c1cc(Cl)c2c(C(F)(F)F)ncn2c1N1CCNS(=O)(=O)CC1` (racemic) [Example 159, 2-Amino-N-{1-[8-chloro-5-(1,1-dioxido-1,2,5-thiadiazepan-5-yl)-1-(trifluoromethyl)imidazo[1,5-a]pyridin-6-yl]ethyl}pyrazolo[1,5-a]pyrimidine-3-carboxamide trifluoroacetate salt], the IC50 in test [1] was less than 500 nM; in test [2] (2 μM ATP, 20 μM PIP2) it was less than 2000 nM. `CC(NC(=O)c1c(N)nn2cccnc12)c1cc(Cl)c2cncn2c1C1CCCCC1` (racemic) [Example 183, 2-Amino-N-[1-(8-chloro-5-cyclohexylimidazo[1,5-a]pyridin-6-yl)ethyl]pyrazolo[1,5-a]pyrimidine-3-carboxamide trifluoroacetate salt]: the IC50 in test [1] was less than 500 nM; in test [2] (2 μM ATP, 20 μM PIP2), less than 2000 nM. On to `Cc1nnc2c(Cl)cc(C(C)NC(=O)c3c(N)nn4cccnc34)c(-c3ccccc3)n12` (racemic) [Example 184, 2-Amino-N-[1-(8-chloro-3-methyl-5-phenyl[1,2,4]triazolo[4,3-a]pyridin-6-yl)ethyl]pyrazolo[1,5-a]pyrimidine-3-carboxamide trifluoroacetate salt], for which the IC50 in test [1] was less than 500 nM; in test [2] (2 μM ATP, 20 μM PIP2) it was no less than 2000 nM. In the same order, the values of `CC(NC(=O)c1c(N)nn2cccnc12)c1cc(Cl)c2nncn2c1-c1ccccc1` (racemic) [Example 185, 2-Amino-N-[1-(8-chloro-5-phenyl[1,2,4]triazolo[4,3-a]pyridin-6-yl)ethyl]pyrazolo[1,5-a]pyrimidine-3-carboxamide trifluoroacetate salt] are less than 500 nM and no less than 2000 nM. In the same order, the values of `CCOc1c(C(C)NC(=O)c2c(N)nn3cccnc23)cc(Cl)c2cn[nH]c12` (single isomer, unassigned) [Example 3b, 2-amino-N-[1-(4-chloro-7-ethoxy-1H-indazol-6-yl)ethyl]pyrazolo[1,5-a]pyrimidine-3-carboxamide trifluoroacetate] are greater than 2000 nM and no less than 2000 nM. Take `CCOc1c(C(C)n2nc(C)c3c(N)ncnc32)cc(Cl)c(F)c1C1CNC(=O)C1` (single isomer, unassigned) [Example 32a, 4-{3-[1-(4-amino-3-methyl-1H-pyrazolo[3,4-d]pyrimidin-1-yl)ethyl]-5-chloro-2-ethoxy-6-fluorophenyl}pyrrolidin-2-one, reference compound]: the IC50 in test [2] (Table B, Assay C) was in the range of 50 to 200 nM. The same measure, in the same setting: the result for `CCOc1c(C(C)n2nc(C)c3c(N)ncnc32)cc(Cl)c(F)c1C1CNC(=O)C1` (single isomer, unassigned) [Example 32b, 4-{3-[1-(4-amino-3-methyl-1H-pyrazolo[3,4-d]pyrimidin-1-yl)ethyl]-5-chloro-2-ethoxy-6-fluorophenyl}pyrrolidin-2-one, reference compound] reads less than 50 nM. For the compound `CCOc1c(C(C)n2nc(C)c3c(N)ncnc32)cc(Cl)c(F)c1C1CNC(=O)C1` (single isomer, unassigned) [Example 32c, 4-{3-[1-(4-amino-3-methyl-1H-pyrazolo[3,4-d]pyrimidin-1-yl)ethyl]-5-chloro-2-ethoxy-6-fluorophenyl}pyrrolidin-2-one, reference compound], the IC50 in test [2] (Table B, Assay C) was less than 50 nM. Turning to `CCOc1c(C(C)n2nc(C)c3c(N)ncnc32)cc(Cl)c(F)c1C1CNC(=O)C1` (single isomer, unassigned) [Example 32d, 4-{3-[1-(4-amino-3-methyl-1H-pyrazolo[3,4-d]pyrimidin-1-yl)ethyl]-5-chloro-2-ethoxy-6-fluorophenyl}pyrrolidin-2-one, reference compound], in test [2] (Table B, Assay C), the IC50 was 50 to 200 nM.

As to `CCOc1c(C(C)NC(=O)c2c(N)nn3cccnc23)cc(Cl)c2cn(CCOC)nc12` (stereo not drawn) [Example 5a, 2-amino-N-(1-(4-chloro-7-ethoxy-2-(2-methoxyethyl)-2H-indazol-6-yl)ethyl)pyrazolo[1,5-a]pyrimidine-3-carboxamide trifluoroacetate], the IC50 in test [1] is less than 2000 nM; in test [2] (2 μM ATP, 20 μM PIP2) it was less than 2000 nM. With `CCOc1c(C(C)NC(=O)c2c(N)nn3cccnc23)cc(Cl)c2cn(CCO)nc12` (stereo not drawn) [Example 6a, 2-amino-N-(1-(4-chloro-7-ethoxy-2-(2-hydroxyethyl)-2H-indazol-6-yl)ethyl)pyrazolo[1,5-a]pyrimidine-3-carboxamide trifluoroacetate], the IC50 in test [1] is less than 2000 nM; in test [2] (2 μM ATP, 20 μM PIP2), less than 2000 nM. Take `CCOc1c(C(C)NC(=O)c2c(N)nn3cccnc23)cc(Cl)c2cn(CC#N)nc12` (stereo not drawn) [Example 7a, 2-amino-N-(1-(4-chloro-2-(cyanomethyl)-7-ethoxy-2H-indazol-6-yl)ethyl)pyrazolo[1,5-a]pyrimidine-3-carboxamide trifluoroacetate]: the IC50 is greater than 2000 nM in test [1] and no less than 2000 nM in test [2] (2 μM ATP, 20 μM PIP2). Regarding `CCOc1c(C(C)NC(=O)c2c(N)nn3cccnc23)cc(Cl)c2cn(Cc3ccccc3)nc12` (stereo not drawn) [Example 8a, 2-amino-N-(1-(2-benzyl-4-chloro-7-ethoxy-2H-indazol-6-yl)ethyl)pyrazolo[1,5-a]pyrimidine-3-carboxamide trifluoroacetate], the IC50 in test [1] was less than 2000 nM; in test [2] (2 μM ATP, 20 μM PIP2), no less than 2000 nM. In the same order, the values of `CCOc1c(C(C)NC(=O)c2c(N)nn3cccnc23)cc(Cl)c2cn(CC(C)C)nc12` (stereo not drawn) [Example 9a, 2-amino-N-(1-(4-chloro-7-ethoxy-2-isobutyl-2H-indazol-6-yl)ethyl)pyrazolo[1,5-a]pyrimidine-3-carboxamide trifluoroacetate] are less than 2000 nM and no less than 2000 nM.

As to `CCOc1c(C(C)NC(=O)c2c(N)nn3cccnc23)cc(Cl)c2cn(C3CCC3)nc12` (stereo not drawn) [Example 10a, 2-amino-N-(1-(4-chloro-2-cyclobutyl-7-ethoxy-2H-indazol-6-yl)ethyl)pyrazolo[1,5-a]pyrimidine-3-carboxamide trifluoroacetate], the IC50 was less than 2000 nM in test [1] and no less than 2000 nM in test [2] (2 μM ATP, 20 μM PIP2). As to `CCOc1c(C(C)NC(=O)c2c(N)nn3cccnc23)cc(Cl)c2cn(C(C)C)nc12` (stereo not drawn) [Example 11a, 2-amino-N-(1-(4-chloro-7-ethoxy-2-isopropyl-2H-indazol-6-yl)ethyl)pyrazolo[1,5-a]pyrimidine-3-carboxamide trifluoroacetate], the IC50 in test [1] is less than 2000 nM; in test [2] (2 μM ATP, 20 μM PIP2), no less than 2000 nM. For `COc1c(C(C)n2nc(C)c3c(N)ncnc32)cc(Cl)c(C#N)c1C1CN(C[C@H](C)O)C1` (stereo partly drawn) [Example 29, 4-[1-(4-amino-3-methyl-1H-pyrazolo[3,4-d]pyrimidin-1-yl)ethyl]-6-chloro-2-{1-[(2S)-2-hydroxypropyl]azetidin-3-yl}-3-methoxybenzonitrile], the IC50 in test [2] (Table B, Assay C) is less than 50 nM. In the case of `COc1c(C(C)n2nc(C)c3c(N)ncnc32)cc(Cl)c(C#N)c1C1CN(CCO)C1` (stereo not drawn) [Example 30, 4-[1-(4-amino-3-methyl-1H-pyrazolo[3,4-d]pyrimidin-1-yl)ethyl]-6-chloro-2-[1-(2-hydroxyethyl)azetidin-3-yl]-3-methoxybenzonitrile], the IC50 in test [2] (Table B, Assay C) is less than 50 nM.

Turning to `CCOc1c(C(C)n2nc(C)c3c(N)ncnc32)cc(C)c(C#N)c1-c1ccc(C(=O)N(C)C)nc1` (stereo not drawn) [Example 31, 5-{3-[1-(4-amino-3-methyl-1H-pyrazolo[3,4-d]pyrimidin-1-yl)ethyl]-6-cyano-2-ethoxy-5-methylphenyl}-N,N-dimethylpyridine-2-carboxamide, reference compound], in test [2] (Table B, Assay C), the half-inhibitory concentration (IC50) is less than 50 nM. Consider `CCOc1c(C(C)NC(=O)c2c(N)nc3ccc(C)nn23)cc(Cl)c2cn[nH]c12` (stereo not drawn) [Example 46, 2-Amino-N-(1-(4-chloro-7-ethoxy-1H-indazol-6-yl)ethyl)-6-methylimidazo[1,2-b]pyridazine-3-carboxamide], for which the IC50 was less than 500 nM in test [1] and less than 500 nM in test [2] (2 μM ATP, 20 μM PIP2).

On to `CCOc1c(C(C)NC(=O)c2c(N)nc3ccc(N4CCCCC4)nn23)cc(Cl)c2cn[nH]c12` (stereo not drawn) [Example 47, 2-Amino-N-(1-(4-chloro-7-ethoxy-1H-indazol-6-yl)ethyl)-6-(piperidin-1-yl)imidazo[1,2-b]pyridazine-3-carboxamide], for which the IC50 is less than 500 nM in test [1] and less than 500 nM in test [2] (2 μM ATP, 20 μM PIP2). For `CCc1n[nH]c2c(-c3ccccc3)c(C(C)NC(=O)c3c(N)nn4cccnc34)cc(Cl)c12` (stereo not drawn) [Example 51, 2-Amino-N-(1-(4-chloro-3-ethyl-7-phenyl-1H-indazol-6-yl)ethyl)pyrazolo[1,5-a]pyrimidine-3-carboxamide trifluoroacetate], the IC50 was less than 2000 nM in test [1] and no less than 2000 nM in test [2] (2 μM ATP, 20 μM PIP2). In the case of `CC(NC(=O)c1c(N)nn2cccnc12)c1cc(Cl)c2cn[nH]c2c1OCCCN` (stereo not drawn) [Example 64, 2-Amino-N-{1-[7-(3-aminopropoxy)-4-chloro-1H-indazol-6-yl]ethyl}pyrazolo[1,5-a]pyrimidine-3-carboxamide bis(trifluoroacetate)], the IC50 in test [1] was less than 500 nM; in test [2] (2 μM ATP, 20 μM PIP2) it was less than 500 nM. As to `CC(NC(=O)c1c(N)nn2cccnc12)c1cc(Cl)c2cncn2c1N1CCCC(F)C1` (stereo not drawn) [Example 73C-73D, 2-Amino-N-{1-[8-chloro-5-(3-fluoropiperidin-1-yl)imidazo[1,5-a]pyridin-6-yl]ethyl}pyrazolo[1,5-a]pyrimidine-3-carboxamide], the IC50 is less than 500 nM in test [1] and no less than 2000 nM in test [2] (2 μM ATP, 20 μM PIP2).
